Measurements: patent US8192962B2, “Processes for detecting toxic substances” (Daikin Industries, Ltd., priority 2001, dated 2012)

How the values were obtained:
DNA repair protein genes = assay: DNA chip mRNA expression in yeast, DNA repair protein genes (Table 3); format: cell-based, Saccharomyces cerevisiae S288C; details: incubated two hours, concentrations as in the 1st table
How it was run: (§1)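 Measured as treated-to-untreated fluorescence ratio on a full-genome yeast DNA chip. Cells (S288C, YPD, 25° C.) were exposed in log phase for two hours to one chemical, dosed to curb growth without killing.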

[1] = test system: Detoxification protein genes; assay: DNA chip mRNA expression in yeast, detoxification protein genes (Table 8); format: cell-based, Saccharomyces cerevisiae S288C
How it was run: as §1

O=[N+]([O-])c1cc[n+]([O-])c2ccccc12 [(5), 4-nitroquinolin-N-oxide]
The level of expressed mRNA in the presence of chemical substance/The level of expressed mRNA in the absence of chemical substance (DNA repair protein genes; yeast gene YAL015C): 1.1 | The level of expressed mRNA in the presence of chemical substance/The level of expressed mRNA in the absence of chemical substance (DNA repair protein genes; yeast gene YAR007C): 1.5 | The level of expressed mRNA in the presence of chemical substance/The level of expressed mRNA in the absence of chemical substance (DNA repair protein genes; yeast gene YBL019W): 1.0 | The level of expressed mRNA in the presence of chemical substance/The level of expressed mRNA in the absence of chemical substance (DNA repair protein genes; yeast gene YBR073W): 1.2 | The level of expressed mRNA in the presence of chemical substance/The level of expressed mRNA in the absence of chemical substance (DNA repair protein genes; yeast gene YBR272C): 1.1 | The level of expressed mRNA in the presence of chemical substance/The level of expressed mRNA in the absence of chemical substance (DNA repair protein genes; yeast gene YCR014C): 1.2 | The level of expressed mRNA in the presence of chemical substance/The level of expressed mRNA in the absence of chemical substance (DNA repair protein genes; yeast gene YDL017W): 1.2 | The level of expressed mRNA in the presence of chemical substance/The level of expressed mRNA in the absence of chemical substance (DNA repair protein genes; yeast gene YDL059C): 1.2 | The level of expressed mRNA in the presence of chemical substance/The level of expressed mRNA in the absence of chemical substance (DNA repair protein genes; yeast gene YDL200C): 1.1 | The level of expressed mRNA in the presence of chemical substance/The level of expressed mRNA in the absence of chemical substance (DNA repair protein genes; yeast gene YDR054C): 0.7 | The level of expressed mRNA in the presence of chemical substance/The level of expressed mRNA in the absence of chemical substance (DNA repair protein genes; yeast gene YDR369C): 1.0 | The level of expressed mRNA in the presence of chemical substance/The level of expressed mRNA in the absence of chemical substance (DNA repair protein genes; yeast gene YEL019C): 0.9 | The level of expressed mRNA in the presence of chemical substance/The level of expressed mRNA in the absence of chemical substance (DNA repair protein genes; yeast gene YEL037C): 0.5 | The level of expressed mRNA in the presence of chemical substance/The level of expressed mRNA in the absence of chemical substance (DNA repair protein genes; yeast gene YER162C): 0.9 | The level of expressed mRNA in the presence of chemical substance/The level of expressed mRNA in the absence of chemical substance (DNA repair protein genes; yeast gene YFL014W): 1.0 | The level of expressed mRNA in the presence of chemical substance/The level of expressed mRNA in the absence of chemical substance (DNA repair protein genes; yeast gene YGL058W): 1.0 | The level of expressed mRNA in the presence of chemical substance/The level of expressed mRNA in the absence of chemical substance (DNA repair protein genes; yeast gene YGL091C): 0.8 | The level of expressed mRNA in the presence of chemical substance/The level of expressed mRNA in the absence of chemical substance (DNA repair protein genes; yeast gene YGL127C): 1.3 | The level of expressed mRNA in the presence of chemical substance/The level of expressed mRNA in the absence of chemical substance (DNA repair protein genes; yeast gene YGL163C): 1.5 | The level of expressed mRNA in the presence of chemical substance/The level of expressed mRNA in the absence of chemical substance (DNA repair protein genes; yeast gene YGL249W): 1.1 | The level of expressed mRNA in the presence of chemical substance/The level of expressed mRNA in the absence of chemical substance (DNA repair protein genes; yeast gene YGR180C): 2.0 | The level of expressed mRNA in the presence of chemical substance/The level of expressed mRNA in the absence of chemical substance (DNA repair protein genes; yeast gene YGR231C): 1.3 | The level of expressed mRNA in the presence of chemical substance/The level of expressed mRNA in the absence of chemical substance (DNA repair protein genes; yeast gene YGR258C): 1.5 | The level of expressed mRNA in the presence of chemical substance/The level of expressed mRNA in the absence of chemical substance (DNA repair protein genes; yeast gene YHR164C): 0.9 | The level of expressed mRNA in the presence of chemical substance/The level of expressed mRNA in the absence of chemical substance (DNA repair protein genes; yeast gene YIL036W): 0.9 | The level of expressed mRNA in the presence of chemical substance/The level of expressed mRNA in the absence of chemical substance (DNA repair protein genes; yeast gene YIL072W): 1.5 | The level of expressed mRNA in the presence of chemical substance/The level of expressed mRNA in the absence of chemical substance (DNA repair protein genes; yeast gene YIL143C): 0.8 | The level of expressed mRNA in the presence of chemical substance/The level of expressed mRNA in the absence of chemical substance (DNA repair protein genes; yeast gene YIL153W): 1.0 | The level of expressed mRNA in the presence of chemical substance/The level of expressed mRNA in the absence of chemical substance (DNA repair protein genes; yeast gene YIR002C): 1.2 | The level of expressed mRNA in the presence of chemical substance/The level of expressed mRNA in the absence of chemical substance (DNA repair protein genes; yeast gene YJL026W): 1.7 | The level of expressed mRNA in the presence of chemical substance/The level of expressed mRNA in the absence of chemical substance (DNA repair protein genes; yeast gene YJR046W): 0.8 | The level of expressed mRNA in the presence of chemical substance/The level of expressed mRNA in the absence of chemical substance (DNA repair protein genes; yeast gene YJR052W): 1.0 | The level of expressed mRNA in the presence of chemical substance/The level of expressed mRNA in the absence of chemical substance (DNA repair protein genes; yeast gene YKL145W): 1.4 | The level of expressed mRNA in the presence of chemical substance/The level of expressed mRNA in the absence of chemical substance (DNA repair protein genes; yeast gene YLR103C): 1.0 | The level of expressed mRNA in the presence of chemical substance/The level of expressed mRNA in the absence of chemical substance (DNA repair protein genes; yeast gene YLR233C): 1.2 | The level of expressed mRNA in the presence of chemical substance/The level of expressed mRNA in the absence of chemical substance (DNA repair protein genes; yeast gene YLR288C): 1.7 | The level of expressed mRNA in the presence of chemical substance/The level of expressed mRNA in the absence of chemical substance (DNA repair protein genes; yeast gene YML032C): 1.0 | The level of expressed mRNA in the presence of chemical substance/The level of expressed mRNA in the absence of chemical substance (DNA repair protein genes; yeast gene YML058W): 0.6 | The level of expressed mRNA in the presence of chemical substance/The level of expressed mRNA in the absence of chemical substance (DNA repair protein genes; yeast gene YMR035W): 0.8 | The level of expressed mRNA in the presence of chemical substance/The level of expressed mRNA in the absence of chemical substance (DNA repair protein genes; yeast gene YMR072W): 1.7 | The level of expressed mRNA in the presence of chemical substance/The level of expressed mRNA in the absence of chemical substance (DNA repair protein genes; yeast gene YMR096W): 1.0 | The level of expressed mRNA in the presence of chemical substance/The level of expressed mRNA in the absence of chemical substance (DNA repair protein genes; yeast gene YMR284W): 0.8 | The level of expressed mRNA in the presence of chemical substance/The level of expressed mRNA in the absence of chemical substance (DNA repair protein genes; yeast gene YNL213C): 1.3 | The level of expressed mRNA in the presence of chemical substance/The level of expressed mRNA in the absence of chemical substance (DNA repair protein genes; yeast gene YNL250W): 0.8 | The level of expressed mRNA in the presence of chemical substance/The level of expressed mRNA in the absence of chemical substance (DNA repair protein genes; yeast gene YNL261W): 0.7 | The level of expressed mRNA in the presence of chemical substance/The level of expressed mRNA in the absence of chemical substance (DNA repair protein genes; yeast gene YNL312W): 1.4 | The level of expressed mRNA in the presence of chemical substance/The level of expressed mRNA in the absence of chemical substance (DNA repair protein genes; yeast gene YOL043C): 1.2 | The level of expressed mRNA in the presence of chemical substance/The level of expressed mRNA in the absence of chemical substance (DNA repair protein genes; yeast gene YOR005C): 1.3 | The level of expressed mRNA in the presence of chemical substance/The level of expressed mRNA in the absence of chemical substance (DNA repair protein genes; yeast gene YOR386W): 1.2 | The level of expressed mRNA in the presence of chemical substance/The level of expressed mRNA in the absence of chemical substance (DNA repair protein genes; yeast gene YPL022W): 0.8 | The level of expressed mRNA in the presence of chemical substance/The level of expressed mRNA in the absence of chemical substance (DNA repair protein genes; yeast gene YPL164C): 1.2 | The level of expressed mRNA in the presence of chemical substance/The level of expressed mRNA in the absence of chemical substance (DNA repair protein genes; yeast gene YPL194W): 1.3 | The level of expressed mRNA in the presence of chemical substance/The level of expressed mRNA in the absence of chemical substance (DNA repair protein genes; yeast gene YPR025C): 1.6 | The level of expressed mRNA in the presence of chemical substance/The level of expressed mRNA in the absence of chemical substance ([1]; yeast gene YBL064C): 0.8 | The level of expressed mRNA in the presence of chemical substance/The level of expressed mRNA in the absence of chemical substance ([1]; yeast gene YBR008C): 0.9 | The level of expressed mRNA in the presence of chemical substance/The level of expressed mRNA in the absence of chemical substance ([1]; yeast gene YBR145W): 1.1
